The target in one assay is T1, PanZ (Escherichia coli, UniProt P37613).
T1 construct: co-purifies with substoichiometric CoA derivatives; monomer
T1 sequence (P37613 1-127): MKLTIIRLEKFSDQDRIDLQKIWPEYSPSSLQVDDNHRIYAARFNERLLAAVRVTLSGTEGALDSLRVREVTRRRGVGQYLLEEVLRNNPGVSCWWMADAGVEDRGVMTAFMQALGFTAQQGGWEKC
The experiment in a line: 1H-15N HSQC NMR. The settings on record: 0.2 mM PanZ, 50 mM Tris-HCl pH 7.5, 0.1 M NaCl, 0.1 mM DTT, 25 °C. The format is binding.

For assay [1], the target named is T2, PanD-PanZ complex (PanD-PanZ.AcCoA) (Escherichia coli, UniProt P37613).
T2 construct: heterooctamer (4 PanD + 4 PanZ), about 124 kDa; with Aspartate 1-decarboxylase
The experiment in a line: X-ray crystal structure. The format is binding. To be noted: site on PanZ near the PanD interface; crystals from PEG 3350, bis-Tris propane pH 7.4; one AcCoA per PanZ.

Assay [2] has as its target T2, PanD-PanZ complex (PanD-PanZ.AcCoA). The assay is described as follows: X-ray crystal structure. The assay is classed as binding. To be noted: site on PanZ near the PanD interface; crystals from PEG 3350, bis-Tris propane pH 7.4; one AcCoA per PanZ. The source holds these as a separate data set.
A further assay deals with ADC (activated PanD) (Escherichia coli, UniProt P0A790). The settings on record: without PanZ; 25 °C; 2.5 μM ADC; curves with and without PanZ.AcCoA fitted with a shared KM.

For `CC(=O)SCCNC(=O)CCNC(=O)[C@H](O)C(C)(C)COP(=O)(O)OP(=O)(O)OC[C@H]1O[C@@H](n2cnc3c(N)ncnc32)[C@H](O)[C@@H]1OP(=O)(O)O` [AcCoA], the “1H-15N HSQC NMR” value at PanZ is “Addition of excess AcCoA led to simplification of the spectrum (Figure 3D)”. Also, the X-ray crystal structure in assay [1] is given as 4CS0 (PanD(S25A)-PanZ.AcCoA); in assay [2], “PDB ID 4CRZ (PanD(T57V)-PanZ.AcCoA)”.
Take `N[C@@H](CC(=O)O)C(=O)O` [compound 5, L-aspartate]: at ADC (activated PanD), the KM result was “Individual curves are fitted to the Michaelis-Menten curve with a shared value of KM”.

The values above are taken from paper PMC4410942 (Chemistry & Biology, 2015).
